Test results from US20210009557A1, “ACYCLIC CXCR4 INHIBITORS AND USES THEREOF” (X4 Pharmaceuticals, Inc., priority 2017, published 2021).
pIC50: −log10 of the molar value.

How the values were obtained:
[1] = target: T1, Jurkat cells expressing CXCR4 (Homo sapiens, UniProt P61073); test: Chemokine (CXCL12-AF647) binding inhibition assay; details: CXCL12-AF647 25 ng/mL, read-out: IC50 CXCL-12 binding Jurkat
T1 construct: Jurkat cells expressing CXCR4; endogenous in cells; host or cells: Jurkat cells
T1 sequence (P61073 whole entry): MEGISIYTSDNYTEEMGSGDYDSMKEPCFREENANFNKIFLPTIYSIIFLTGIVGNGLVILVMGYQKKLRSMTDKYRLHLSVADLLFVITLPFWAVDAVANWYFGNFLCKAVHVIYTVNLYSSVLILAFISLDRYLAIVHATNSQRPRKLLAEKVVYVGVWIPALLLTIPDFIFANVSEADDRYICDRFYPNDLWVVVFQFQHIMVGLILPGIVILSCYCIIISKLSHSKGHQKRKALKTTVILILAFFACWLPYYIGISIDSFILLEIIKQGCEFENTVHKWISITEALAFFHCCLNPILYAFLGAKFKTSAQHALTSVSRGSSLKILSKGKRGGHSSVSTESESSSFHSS
Method: Jurkat cells expressing CXCR4 were washed once with assay buffer (Hanks' balanced salt solution with 20 mM HEPES buffer and 0.2% bovine serum albumin, pH 7.4) and then incubated for 15 min at room temperature with the test compounds diluted in assay buffer at dose-dependent concentrations. Subsequently, CXCL12-AF647 (25 ng/mL) was added to the compound-incubated cells. The cells were incubated for 30 min at room temperature. Thereafter, the cells were washed twice in assay buffer, fixed in 1% paraformaldehyde in PBS, and analyzed on the FL4 channel of a FACSCalibur flow cytometer equipped with a 635-nm red diode laser (Becton Dickinson, San Jose, Calif., USA).
The percentages of inhibition of CXCL12-AF647 binding were calculated according to the formula: [1−((MFI−MFINC)/(MFIPC−MFINC))]×100 where MFI is the mean fluorescence intensity of the cells incubated with CXCL12-AF647 in the presence of the inhibitor, MFINC is the mean fluorescence intensity measured in the negative control (i.e., autofluorescence of unlabeled cells), and MFIPC is the mean fluorescence intensity of the positive control (i.e., cells exposed to CXCL12-AF647 alone).

[2] = target: T2, CXCR-4 transfected U87 cell line (U87.CXCR4) (Homo sapiens, UniProt P61073); test: Intracellular CXCL-12-induced calcium mobilization assay (FLIPR); assay type: cell-based; details: U87.CXCR4 cells; CXCL-12 25-50 ng/mL; compounds added 15 minutes before; read-out: IC50 CXCL-12 Ca2+ flux U87.CXCR4+
T2 construct: expressed in transfected cells; host or cells: U87 cell line (U87.CXCR4)
T2 sequence (P61073 whole entry): as above
Method: Intracellular calcium mobilization induced by chemokines orchemokine-derived peptides were evaluated using a calcium responsive fluorescent probe and a FLIPR system. The CXCR-4 transfected U87 cell line (U87.CXCR4) cells were seeded in gelatine-coated black-wall 96-well plates at 20,000 cells per well and incubated for 12 hours. Cells were then loaded with the fluorescent calcium probe Fluo-2 acetoxymethyl at 4 μM final concentration in assay buffer (Hanks' balanced salt solution with 20 mM HEPES buffer and 0.2% bovine serum albumin, pH 7.4) for 45 min at 37′C. The intracellular calcium mobilization induced by the CXCL-12 (25-50 ng/mL) was then measured at 37° C. by monitoring the fluorescence as a function of time in all the wells simultaneously using a fluorometric imaging plate reader (FLIPR Tetra, Molecular Devices).

[3] = in vitro; details: human, Caco-2, pH 7.4
Method: The goal of this assay was to evaluate the intestinal absorption potential of drug candidates using Caco-2 cell lines.
Experimental Procedure • 1. Pre-warm Pre-warm HBSS Buffer in 37° C. water bath • 2. Sonicate Take compounds from −20° C., sonicate for a few minutes (no less than 1 minute) • 3. Solution preparation
For A-to-B Direction: • HBSS buffer with 0.3% DMSO and 5 μM LY: add 150 μL DMSO and 50 μL LY (5 mM) into 50 ml HBSS buffer (pH 7.4). • HBSS buffer with 0.1% DMSO and 5 μM LY: add 50 μL DMSO and 50 μL LY (5 mM) into 50 mL HBSS buffer (pH 7.4).
For B-to-A Direction: • HBSS buffer with 0.3% DMSO: add 150 μL DMSO into 50 ml HBSS buffer (pH 7.4). HBSS buffer with 0.1% DMSO: add 50 μL DMSO into 50 ml HBSS buffer (pH 7.4).
For A-to-B Direction: • Prepare HBSS buffer with 0.4% DMSO: add 200 μL DMSO into 50 ml HBSS buffer (pH 7.4).
For B-to-A Direction: • Prepare HBSS buffer with 0.4% DMSO and 5 μM LY: add 200 μL DMSO and 50 μL LY (5 mM) into 50 ml HBSS buffer (pH 7.4).
• 4. Measure TEER Take cell culture plate out of incubator, wash the cell monolayers with HBSS buffer, and then measure TEER values at Rm temperature. • 5. Centrifuge Centrifuge the compound solution (from step 3) at 4000 rpm for 5 min before loading to donor chambers. • 6. Dosing Add solution based on the volumes listed in the following table (make sure to take extra 100 μL of donor sample for T0 as Backup).
• 7. Apical LYTO samples To determine LY concentration in the apical chamber, take 100 μL sample from apical chambers into an opaque plate for LYTO. • 8. Pre-warm Pre-warm apical and basolateral plates at 37° C. for about 5 min, then begin transport by placing the apical plate onto basolateral plate. • 9. Incubation Keep the plates in incubator at 37° C. for 90 min. • 10.
• Prepare 1× solution: • 3 μL (20×)+57 μL of 0.4% DMSO HBSS+60 μL ACN with IS (Osalmid or Imipramine)—120 μL (1×) • 11. Transport termination Separate the apical plate from the basolateral plate after 90-min incubation. • 12. Measure LY Take 100 μL samples from basolateral plate to an opaque plate as LYT90. • 13. Measure LY concentrations for LYTO and LYT90 by Fluorometer (at excitation of 485 nm/emission of 535 nm). • 14.
Drug permeability: Papp=(VA/(Area×time))×([drug]accepter/(([drug]initial, donor)×Dilution Factor) • Where VA is the volume in the acceptor well, area is the surface area of the membrane and time is the total transport time in seconds.
For Millicell-24 Cell Culture Plates: surface area of the membrane=0.7 cm^2, VA=0.8 mL (A-to-B) or 0.4 mL (B-to-A)

SMILES | pIC50 [1] | pIC50 [2] | Papp A→B at 90 min, 10 μM [3] [nm/s] | Papp B→A at 90 min, 10 μM [3] [nm/s] | efflux ratio at 90 min, 10 μM [3]
Cn1c(CN(CCC(N)=O)[C@H]2CCCc3cccnc32)nc2ccccc21 [Compound I-22] | 7.00 to 11.00 | 6.00 to 7.00 | 50 to 100 | > 100 | 10 to 30
CC(c1ccccn1)N(CCC(N)=O)Cc1ccccn1 (centres unmarked) [Compound I-11] | 6.00 to 7.00 | ≤ 6.00 | 50 to 100 | > 100 | 0.1 to 10
CC(c1ccccn1)N(CCc1cnc[nH]1)Cc1ccccn1 (centres unmarked) [Compound I-6] | 7.00 to 11.00 | ≤ 6.00 | < 50 | > 100 | 10 to 30
Cn1c(CN(CCc2c[nH]cn2)[C@H]2CCCc3cccnc32)nc2cccc(F)c21 [Compound I-44] | 7.00 to 11.00 | 7.00 to 11.00 | 50 to 100 | > 100 | 0.1 to 10
Cc1cccnc1CN(CCC(N)=O)[C@H]1CCCc2cccnc21 [Compound I-23] | 7.00 to 11.00 | ≤ 6.00 | 50 to 100 | > 100 | 10 to 30
c1cnc2c(c1)CCC[C@@H]2N(CCC1CCCCO1)Cc1nc2ccccc2[nH]1 (some centres unmarked) [Compound I-16] | 6.00 to 7.00 | ≤ 6.00 | > 100 | > 100 | 0.1 to 10
Cn1c(CN(CCc2c[nH]cn2)[C@H]2CCCc3cccnc32)nc2ccccc21 [Compound I-25] | 7.00 to 11.00 | 7.00 to 11.00 | < 50 | > 100 | 10 to 30
NC(=O)CCN(Cc1ncccc1-c1ccccc1)[C@H]1CCCc2cccnc21 [Compound I-51] | 7.00 to 11.00 | ≤ 6.00 | 50 to 100 | > 100 | 0.1 to 10
CC(C)c1cccnc1CN(CCC(N)=O)[C@H]1CCCc2cccnc21 [Compound I-48] | 7.00 to 11.00 | ≤ 6.00 | < 50 | > 100 | 0.1 to 10
c1cnc2c(c1)CCC[C@@H]2N(CCc1cscn1)Cc1nc2ccccc2[nH]1 [Compound I-20] | 7.00 to 11.00 | 7.00 to 11.00 | > 100 | > 100 | 0.1 to 10
COc1cccc(CCN(Cc2ncccc2C)Cc2ncccc2C)n1 [Compound I-31, 2-(6-Methoxypyridin-2-yl)-N,N-bis((3-methylpyridin-2-yl)methyl)ethan-1-amine] | 7.00 to 11.00 | 7.00 to 11.00 | > 100 | > 100 | 0.1 to 10
Cn1c(CN(CCc2c[nH]cn2)[C@H]2CCCc3cccnc32)nc2cc(F)ccc21 [Compound I-45] | 7.00 to 11.00 | ≤ 6.00 | < 50 | > 100 | 0.1 to 10
OCCN(Cc1nc2ccccc2[nH]1)[C@H]1CCCc2cccnc21 [Compound I-55] | 6.00 to 7.00 | ≤ 6.00 | > 100 | > 100 | 0.1 to 10
Cc1cccnc1CN(CCC(N)=O)Cc1ncccc1C [Compound I-14, 3-(Bis((3-methylpyridin-2-yl)methyl)amino)propanamide] | 6.00 to 7.00 | ≤ 6.00 | > 100 | > 100 | 0.1 to 10
Cc1cccnc1CN(CCc1cnc[nH]1)Cc1ncccc1C [Compound I-9] | 7.00 to 11.00 | 7.00 to 11.00 | < 50 | > 100 | 10 to 30
Cc1cccnc1CN(CCc1c[nH]cn1)Cc1nc2cccc(F)c2n1C [Compound I-40] | 7.00 to 11.00 | ≤ 6.00 | < 50 | > 100 | 10 to 30
CC(C)c1cccnc1CN(CCC(N)=O)Cc1ncccc1-c1ccccc1 [Compound I-47] | 6.00 to 7.00 | ≤ 6.00 | > 100 | > 100 | 0.1 to 10
Cc1cccnc1CN(CCc1c[nH]cn1)Cc1nc2ccc(F)cc2n1C [Compound I-41] | 7.00 to 11.00 | 6.00 to 7.00 | < 50 | > 100 | > 30
CC(c1ccccn1)N(CCc1cnc[nH]1)Cc1nc2ccccc2[nH]1 (centres unmarked) [Compound I-7, N-((1H-benzo[d]imidazol-2-yl)methyl)-N-(2-(1H-imidazol-5-yl)ethyl)-1-(pyridin-2-yl)ethan-1-amine] | 7.00 to 11.00 | ≤ 6.00 | < 50 | > 100 | > 30
